How the values were obtained:
[1] = test system: stress-induced ulcer formation; assay: Water immersion stress-induced ulcers test; type: in vivo, rat; conditions: for Score for the Presence of Ulcers Mean ± SEM: score 0-4; for Ulceration Index: ulcer score x percentage of stomachs showing ulcers; for effect on ulcer score: text summary of Table 4
[2] = test system: gastrointestinal propulsive motility; assay: Charcoal meal test (basal gastrointestinal propulsive motility); type: in vivo, rat; conditions: for % Inhibition: numbers in parentheses indicate % increase; for effect on charcoal meal transit: R-tofisopam at the highest dose tested, loperamide positive control
[3] = test system: abdominal contractions induced by colonic distension; assay: Visceral hypersensitivity, pain and bloating test (colonic distension after 1% acetic acid); type: in vivo, rat
[4] = test system: dextran sulfate sodium-induced colitis; assay: Dextran sulfate sodium-induced colitis; type: in vivo; conditions: DSS 5% solution in tap water
Description: Another gastrointestinal disorder model tested was the dextran sulfate sodium-induced colitis. In this model of colitis, an acute inflammation of the colon is produced by administration of dextran sulfate sodium (DSS) as a 5% solution in tap water. This colitis is characterized by histological events and an influx of neutrophils, macrophages and mediators of inflammation similar to those observed with human inflammatory bowel diseases.

[5] = test system: colonic propulsive motility; assay: Glass bead test (stimulated colonic propulsion); type: in vivo, mouse; conditions: for Expulsion Time Mean ± SEM: 30 minutes prior to bead insertion, cutoff 30 minutes, in min
Description: In the test, usually performed in mice, a 3-mm glass bead is inserted through the anus into the distal colon (using a glass rod) to a depth of 2 cm. The time to expel the glass bead is then measured; normally, the glass bead is expelled in approximately 10 minutes. This model is especially sensitive to compounds with inhibitory effects on stretch-stimulated propulsive motor activity; as such, it is often used as an animal model for IBS. A test compound that inhibits stretch-stimulated-colonic propulsive motility, may be used to treat gastrointestinal dysfunction, including IBS. […] The glass bead test is commonly used to evaluate the ability of compounds to affect stimulated colonic propulsion. In the test, usually performed in mice, a 3-mm glass bead is inserted through the anus into the distal colon (using a glass rod) to a depth of 2 cm. The time to expel the glass bead is then measured; normally, the glass bead is expelled in approximately 10 minutes. This model is especially sensitive to compounds with inhibitory effects on stretch-stimulated propulsive motor activity; as such, it is often used as an animal model for IBS. In each study, RS— and R-tofisopam were evaluated for their ability to increase or decrease the time for expulsion of the glass bead.

[6] = test system: stress-induced ulcers; conditions: pre-treatment 30 or 100 mg/kg PO; cited from earlier work
[7] = test system: hydrochloric acid-induced, alkali-induced and cauterization-induced ulcers; conditions: in vivo; cited from earlier work
[8] = test system: gastric function; conditions: cited from earlier work
[9] = test system: dextran sulfate sodium-induced colitis; conditions: in vivo; cited from earlier work
[10] = 8 mg/kg IP 30 minutes prior to water immersion
[11] = first experiment, 64 mg/kg IP, 30 minutes prior to charcoal meal

| Compound | % of Stomachs Showing Ulcers ([1]; 8 mg/kg IP) | Score for the Presence of Ulcers Mean ± SEM [1, 10] | Ulceration Index ([1]; 8 mg/kg IP) | % of Stomachs Showing Ulcers ([1]; 16 mg/kg IP) | Score for the Presence of Ulcers Mean ± SEM ([1]; 16 mg/kg IP) | Ulceration Index ([1]; 16 mg/kg IP) | % of Stomachs Showing Ulcers ([1]; 32 mg/kg IP) | Score for the Presence of Ulcers Mean ± SEM ([1]; 32 mg/kg IP) | Ulceration Index ([1]; 32 mg/kg IP) | % of Stomachs Showing Ulcers ([1]; 64 mg/kg IP) | Score for the Presence of Ulcers Mean ± SEM ([1]; 64 mg/kg IP) | Ulceration Index ([1]; 64 mg/kg IP) | % of Stomachs Showing Ulcers ([1]; 128 mg/kg IP) | Score for the Presence of Ulcers Mean ± SEM ([1]; 128 mg/kg IP) | Ulceration Index ([1]; 128 mg/kg IP) | effect on ulcer score [1] | % Intestine Traversed Mean ± SEM ([2]; first experiment, 16 mg/kg IP) | % Intestine Traversed Mean ± SEM ([2]; first experiment, 32 mg/kg IP) | % Intestine Traversed Mean ± SEM ([2]; second experiment, 16 mg/kg IP) | % Inhibition ([2]; second experiment, 16 mg/kg IP) | also measured |
| --- | --- | --- | --- | --- | --- | --- | --- | --- | --- | --- | --- | --- | --- | --- | --- | --- | --- | --- | --- | --- | --- |
| CC[C@H]1C(C)=NN=C(c2ccc(OC)c(OC)c2)c2cc(OC)c(OC)cc21 [R-tofisopam, (R)-1-(3,4-dimethoxyphenyl)-4-methyl-5-ethyl-7,8-dimethoxy-5H-2,3-benzodiazepine] | 100% | 3.6 ± 0.3 | 363 | 88% | 3.1 ± 0.5 | 273 | 88% | 3.1 ± 0.5 | 273 | 29% | 1.7 ± 0.6 | 49 | 38% | 1.4 ± 0.2 | 52 | significantly reduced the ulcer score | 82.8 ± 3.1% | 85.4 ± 2.9% | 65.7 ± 3.0% | 12.1% | % Intestine Traversed Mean ± SEM [2, 11]: 72.9 ± 2.9 %; % Inhibition ([2]; first experiment, 64 mg/kg IP): 10.6%; % Intestine Traversed Mean ± SEM ([2]; second experiment, 4 mg/kg IP): 71.72 ± 3.2%; % Inhibition ([2]; second experiment, 4 mg/kg IP): 4.1%; % Intestine Traversed Mean ± SEM ([2]; second experiment, 8 mg/kg IP): 75.2 ± 4.1%; % Intestine Traversed Mean ± SEM ([2]; second experiment, 32 mg/kg IP): 59.5 ± 3.2 %; % Inhibition ([2]; second experiment, 32 mg/kg IP): 20.3%; effect on charcoal meal transit ([2]; second experiment): only a slight inhibition; decrease of abdominal cramps versus vehicle control ([3]; 32 mg/kg p.o.): 49%; number of abdominal cramps ([3]; 32 mg/kg p.o., vehicle control 18.8 cramps): 9.5±1.7 cramps; effect in DSS colitis model compared with racemic tofisopam [4]: substantially greater effect; % Inhibition ([5]; 16 mg/kg IP): 100%; Expulsion Time Mean ± SEM ([5]; 16 mg/kg IP): 30.0 ± 0.0; % Inhibition ([5]; 32 mg/kg IP): 99%; Expulsion Time Mean ± SEM ([5]; 32 mg/kg IP): 29.7 ± 0.3; % Inhibition ([5]; 64 mg/kg IP): 90%; Expulsion Time Mean ± SEM ([5]; 64 mg/kg IP): 28.0 ± 1.1; effect on colonic expulsion ([5]; text summary of Table 1, 16-64 mg/kg IP): significantly prolonged (i.e., slowed) colonic expulsion |
| CN1C(=O)CC(=O)N(c2ccccc2)c2cc(Cl)ccc21 [Clobazam, clobazam] | – | – | – | 100% | 3.6 ± 0.2 | 363 | 75% | 2.6 ± 0.5 | 197 | – | – | – | – | – | – | reduced the ulcer score slightly, but this effect was not statistically significant | – | – | – | – | – |
| CCC1C(C)=NN=C(c2ccc(OC)c(OC)c2)c2cc(OC)c(OC)cc21 (racemic) [RS-tofisopam, tofisopam] | 100% | 3.4 ± 0.3 | 338 | 100% | 3.4 ± 0.3 | 338 | 100% | 3.5 ± 0.3 | 350 | 100% | 3.1 ± 0.3 | 313 | 75% | 2.4 ± 0.4 | 178 | – | 73.5 ± 3.5% | 77.7 ± 2.3% | 70.4 ± 3.7% | 5.8% | reduction of number of stress-induced ulcers and total area of ulceration [6]: ≤ 90%; effect on cauterization-induced ulcers [7]: promoted the healing; effect on hydrochloric acid-induced and alkali-induced ulcers [7]: suppressed the development; % Inhibition ([2]; first experiment, 16 mg/kg IP): 9.8%; % Inhibition ([2]; first experiment, 32 mg/kg IP): 4.7%; % Intestine Traversed Mean ± SEM [2, 11]: 81.7 ± 2.8%; % Inhibition ([2]; first experiment, 64 mg/kg IP): 0%; % Intestine Traversed Mean ± SEM ([2]; second experiment, 4 mg/kg IP): 77.9 ± 2.9%; % Intestine Traversed Mean ± SEM ([2]; second experiment, 8 mg/kg IP): 78.3 ± 1.7%; % Intestine Traversed Mean ± SEM ([2]; second experiment, 32 mg/kg IP): 65.6 ± 4.5%; % Inhibition ([2]; second experiment, 32 mg/kg IP): 12.2%; effect on number of abdominal contractions versus vehicle control ([3]; 32 mg/kg): did not significantly modify; effect on basal gastric acid output and mucosal blood flow ([8]; intracerebroventricular injection 50 or 100 μg): increased both basal gastric acid output and mucosal blood flow; effect on basal gastric acid output ([8]; intravenous injection 10 mg/kg): did not change basal gastric acid output; % Inhibition ([5]; 16 mg/kg IP): 46%; Expulsion Time Mean ± SEM ([5]; 16 mg/kg IP): 19.0 ± 2.8; % Inhibition ([5]; 32 mg/kg IP): 71%; Expulsion Time Mean ± SEM ([5]; 32 mg/kg IP): 23.7 ± 2.6; % Inhibition ([5]; 64 mg/kg IP): 82%; Expulsion Time Mean ± SEM ([5]; 64 mg/kg IP): 26.4 ± 2.4 |
| O=C(O)c1cc(/N=N/c2ccc(S(=O)(=O)Nc3ccccn3)cc2)ccc1O [sulfasalazine] | – | – | – | – | – | – | – | – | – | – | – | – | – | – | – | – | – | – | – | – | activity in DSS colitis model [9]: have been shown to have activity in this model |
| CN(C)C(=O)C(CCN1CCC(O)(c2ccc(Cl)cc2)CC1)(c1ccccc1)c1ccccc1 [Loperamide, loperamide] | – | – | – | – | – | – | – | – | – | – | – | – | – | – | – | – | – | – | 28.1 ± 2.2 % | 62.5% | effect on charcoal meal transit ([2]; second experiment): considerable slowing |

Source: patent publication US20040229867A1, “Treatment of gastrointestinal dysfunction and related stress with an enantiomerically-pure (R) 2,3-benzodiazepine” (priority 2003, published 2004)
